According to patent US20210283139A1, “BIFUNCTIONAL MOLECULES FOR TARGETING UCHL5” (AMPHISTA THERAPEUTICS LTD, priority 2018, published 2021):

Tests used:
Format in all cases: cell-based
Brd4 (L) [1] = target: T1, Brd4 (L) (Homo sapiens, UniProt O60885); assay: Concentration-dependent BET degradation, immunoblot, HEK293 cells; conditions: 6 h treatment, 1 nM-10 μM; for Dmax: read-out: Dmax (%) maximum degradation observed
T1 construct: endogenous in cells; host or cells: HEK293, HeLa
Experimental: (§1) Cell culture. HeLa (CCL-2) and HEK293 (CRL-1573) cells were purchased from ATCC and cultured in DMEM medium (Gibco) supplemented with 10% FBS, 100 μg/mL penicillin/streptomycin and L-glutamine. Cells were grown at 37° C. and 5% CO2, and were kept no longer than 30 passages. All cell lines were routinely tested for mycoplasma contamination using MycoAlert kit from Lonza.
(§2) Immunoblotting. proteins were separated by SDS-PAGE on NuPage 4-12% Bis-Tris gels, followed by transfer to Amersham Protran 0.45 NC nitrocellulose membrane (GE Healthcare) using wet transfer. Membranes were blocked using 5% w/v milk in Tris-buffered saline (TBS) with 0.1% Tween-20. Blots were probed (overnight at 4° C.) using anti-Brd2 (Abcam ab139690, 1:2,000 dilution), anti-Brd3 (Abcam ab50818, 1:500 dilution), and anti-Brd4 (Abcam ab128874, 1:1,000 dilution) primary antibodies, as appropriate. The next day, blots were washed with TBST and incubated (1 hr at RT) with anti-Tubulin hFAB-rhodamine (BioRad, 12004166) primary antibody, and either anti-rabbit IRDye 800CW (Licor 1:10,000 dilution) or anti-mouse IRDye 800CW (Licor 1:10,000 dilution) secondary antibody. Blots were developed using a Bio-Rad ChemiDoc MP Imaging System, and band quantification was performed using Image Studio software (LiCor). Band intensities were normalized to the tubulin loading control and reported as % of the average 0.1% DMSO vehicle intensity. Degradation data was plotted and analysed using Prism (Graphpad, version 8).
(§3) HeLa (5×10^5) and HEK293 (1×10^6) cells were seeded in standard 6-well plates (2 mL medium) overnight before treatment with compounds at the desired concentration (1 nM-10 μM), with a final DMSO concentration of 0.1% v/v. After 6 h treatment time, cells were washed with DPBS (Gibco) and lysed using 85 μL RIPA buffer (Sigma-Aldrich) supplemented with cOmplete Mini EDTA-free protease inhibitor cocktail (Roche) and benzonase. Lysates were clarified by centrifugation (20,000g, 10 min, 4° C.) and the total protein content of the supernatant was quantified using a Bradford colorimetric assay. Samples were prepared using equal amounts of total protein and LDS sample buffer (Invitrogen.
(§4) Representative blots in FIG. 3 show depletion of Brd2, Brd3 and Brd4 protein levels following treatment with increasing concentrations of representative compounds. Band intensities were normalized to the β-tubulin loading control and reported as % of the average 0.1% DMSO vehicle intensity, with each point representing mean±SEM of two independent experiments (n=2). Degradation data was plotted and analysed using Prism (Graphpad, version 8)

Brd4 (S) [2] = target: T2, Brd4 (S) (Homo sapiens, UniProt O60885); assay: as above; conditions: 6 h treatment, 1 nM-10 μM; for Dmax: read-out: Dmax (%) maximum degradation observed
T2 construct: endogenous in cells; host or cells: HEK293, HeLa
Experimental: as §1, §2, §3, §4

Brd4 (L) [3] = target: T1, Brd4 (L); assay: Time-dependent BET degradation, immunoblot, HeLa cells; set-up: dose or concentration left out as unconfirmed; conditions: timecourse 0-8 h
Experimental: as §1, §2
as §3, with “(3×10^5)” for “(5×10^5)”, “(0.5×10^6)” for “(1×10^6)”, “1 μM concentration,” for “the desired concentration (1 nM-10 μM),”, “incubation for the desired time (0-8 h),” for “6 h treatment time,”, “(20,000 g,” for “(20,000g,”, “(Invitrogen).” for “(Invitrogen.”
as §4, with “FIG. 4” for “FIG. 3”, “following 1 μM” for “following”, “treatment at various time points” for “treatment”, “with” for “with increasing concentrations of”, “version 8).” for “version 8)”
(§5) T½ (h) is the time required to deplete 50% of the protein relative to DMSO

Brd4 (S) [4] = target: T2, Brd4 (S); assay: as above; set-up: dose or concentration left out as unconfirmed; conditions: timecourse 0-8 h
Experimental: as §1, §2
as §3, with “(3×10^5)” for “(5×10^5)”, “(0.5×10^6)” for “(1×10^6)”, “1 μM concentration,” for “the desired concentration (1 nM-10 μM),”, “incubation for the desired time (0-8 h),” for “6 h treatment time,”, “(20,000 g,” for “(20,000g,”, “(Invitrogen).” for “(Invitrogen.”
as §4, with “FIG. 4” for “FIG. 3”, “following 1 μM” for “following”, “treatment at various time points” for “treatment”, “with” for “with increasing concentrations of”, “version 8).” for “version 8)”
as §5

Brd2 [5] = target: T3, Brd2 (Homo sapiens, UniProt P25440); assay: Concentration-dependent BET degradation, immunoblot, HeLa cells; set-up: endogenous in cells; host or cells: HeLa; conditions: Brd2, 6 h treatment, 1 nM-10 μM; for Dmax: read-out: Dmax (%) maximum degradation observed
Experimental: as §1, §2, §3, §4

Brd3 [6] = target: T4, Brd3 (Homo sapiens, UniProt Q15059); assay: as above; set-up: endogenous in cells; host or cells: HeLa; conditions: Brd3, 6 h treatment, 1 nM-10 μM; for Dmax: read-out: Dmax (%) maximum degradation observed
Experimental: as §1, §2, §3, §4

Brd2 [7] = target: T3, Brd2; assay: Time-dependent BET degradation, immunoblot, HeLa cells; set-up: endogenous in cells; host or cells: HeLa; conditions: Brd2, 1 μM, timecourse 0-8 h
Experimental: as §1, §2
as §3, with “(3×10^5)” for “(5×10^5)”, “(0.5×10^6)” for “(1×10^6)”, “1 μM concentration,” for “the desired concentration (1 nM-10 μM),”, “incubation for the desired time (0-8 h),” for “6 h treatment time,”, “(20,000 g,” for “(20,000g,”, “(Invitrogen).” for “(Invitrogen.”
as §4, with “FIG. 4” for “FIG. 3”, “following 1 μM” for “following”, “treatment at various time points” for “treatment”, “with” for “with increasing concentrations of”, “version 8).” for “version 8)”
as §5

Brd3 [8] = target: T4, Brd3; assay: as above; set-up: endogenous in cells; host or cells: HeLa; conditions: Brd3, 1 μM, timecourse 0-8 h
Experimental: as §1, §2
as §3, with “(3×10^5)” for “(5×10^5)”, “(0.5×10^6)” for “(1×10^6)”, “1 μM concentration,” for “the desired concentration (1 nM-10 μM),”, “incubation for the desired time (0-8 h),” for “6 h treatment time,”, “(20,000 g,” for “(20,000g,”, “(Invitrogen).” for “(Invitrogen.”
as §4, with “FIG. 4” for “FIG. 3”, “following 1 μM” for “following”, “treatment at various time points” for “treatment”, “with” for “with increasing concentrations of”, “version 8).” for “version 8)”
as §5

Brd2 [9] = target: T3, Brd2; assay: Time-dependent BET degradation, immunoblot, HEK293 cells; set-up: endogenous in cells; host or cells: HEK293; conditions: HEK293, Brd2, 1 μM, timecourse 0-8 h
Experimental: as §1, §2
as §3, with “(3×10^5)” for “(5×10^5)”, “(0.5×10^6)” for “(1×10^6)”, “1 μM concentration,” for “the desired concentration (1 nM-10 μM),”, “incubation for the desired time (0-8 h),” for “6 h treatment time,”, “(20,000 g,” for “(20,000g,”, “(Invitrogen).” for “(Invitrogen.”
as §4, with “FIG. 4” for “FIG. 3”, “following 1 μM” for “following”, “treatment at various time points” for “treatment”, “with” for “with increasing concentrations of”, “version 8).” for “version 8)”
as §5

Brd3 [10] = target: T4, Brd3; assay: as above; set-up: endogenous in cells; host or cells: HEK293; conditions: HEK293, Brd3, 1 μM, timecourse 0-8 h
Experimental: as §1, §2
as §3, with “(3×10^5)” for “(5×10^5)”, “(0.5×10^6)” for “(1×10^6)”, “1 μM concentration,” for “the desired concentration (1 nM-10 μM),”, “incubation for the desired time (0-8 h),” for “6 h treatment time,”, “(20,000 g,” for “(20,000g,”, “(Invitrogen).” for “(Invitrogen.”
as §4, with “FIG. 4” for “FIG. 3”, “following 1 μM” for “following”, “treatment at various time points” for “treatment”, “with” for “with increasing concentrations of”, “version 8).” for “version 8)”
as §5

T3 sequence (P25440 whole entry): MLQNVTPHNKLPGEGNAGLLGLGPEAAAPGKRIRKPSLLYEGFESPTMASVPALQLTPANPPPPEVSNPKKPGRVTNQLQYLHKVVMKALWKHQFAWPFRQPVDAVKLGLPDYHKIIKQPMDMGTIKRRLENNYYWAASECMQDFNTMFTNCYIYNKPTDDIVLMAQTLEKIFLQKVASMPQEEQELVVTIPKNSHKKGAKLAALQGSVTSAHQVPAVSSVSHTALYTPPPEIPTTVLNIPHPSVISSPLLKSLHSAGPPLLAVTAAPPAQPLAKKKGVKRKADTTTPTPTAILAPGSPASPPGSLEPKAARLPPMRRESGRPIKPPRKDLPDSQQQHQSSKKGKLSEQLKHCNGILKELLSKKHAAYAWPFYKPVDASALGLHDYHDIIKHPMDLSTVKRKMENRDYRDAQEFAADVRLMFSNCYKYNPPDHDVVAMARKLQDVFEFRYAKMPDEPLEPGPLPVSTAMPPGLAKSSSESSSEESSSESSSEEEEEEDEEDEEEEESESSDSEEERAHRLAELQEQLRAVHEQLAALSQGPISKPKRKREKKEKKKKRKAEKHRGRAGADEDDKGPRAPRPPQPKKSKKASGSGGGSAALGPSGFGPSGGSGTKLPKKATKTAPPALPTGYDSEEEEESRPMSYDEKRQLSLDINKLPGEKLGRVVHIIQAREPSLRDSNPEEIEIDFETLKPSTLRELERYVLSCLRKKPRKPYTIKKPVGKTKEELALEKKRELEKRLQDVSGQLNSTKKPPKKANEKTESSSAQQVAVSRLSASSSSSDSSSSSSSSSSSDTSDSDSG
T4 sequence (Q15059 whole entry): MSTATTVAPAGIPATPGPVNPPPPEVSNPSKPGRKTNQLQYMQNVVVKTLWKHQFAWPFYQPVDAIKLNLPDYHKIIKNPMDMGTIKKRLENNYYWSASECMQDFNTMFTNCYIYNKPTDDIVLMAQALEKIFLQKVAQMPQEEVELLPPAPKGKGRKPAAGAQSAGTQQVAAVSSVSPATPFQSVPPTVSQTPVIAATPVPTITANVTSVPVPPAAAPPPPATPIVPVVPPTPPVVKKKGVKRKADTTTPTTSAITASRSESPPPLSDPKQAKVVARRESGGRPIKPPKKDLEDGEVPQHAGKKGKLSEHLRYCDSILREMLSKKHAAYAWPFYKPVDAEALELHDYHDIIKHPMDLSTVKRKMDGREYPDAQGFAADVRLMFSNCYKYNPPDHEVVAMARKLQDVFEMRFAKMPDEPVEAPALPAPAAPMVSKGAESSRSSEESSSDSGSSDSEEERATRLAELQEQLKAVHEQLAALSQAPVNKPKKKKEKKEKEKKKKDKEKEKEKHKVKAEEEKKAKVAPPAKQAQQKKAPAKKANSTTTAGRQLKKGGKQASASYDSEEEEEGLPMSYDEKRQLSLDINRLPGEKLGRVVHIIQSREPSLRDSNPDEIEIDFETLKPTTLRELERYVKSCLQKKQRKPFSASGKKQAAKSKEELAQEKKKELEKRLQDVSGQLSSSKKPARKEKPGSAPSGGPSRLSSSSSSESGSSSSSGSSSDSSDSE

CCCC(NC(=O)/C(C#N)=C/c1cccc(Br)n1)c1ccc(OCC=NOCC(=O)NCCOCCOCCOCCOCCOCCNC(=O)c2ccc3c(c2)[C@H](Nc2ccc(Cl)cc2)C[C@H](C)N3C(C)=O)cc1 (stereo partly drawn) [Example 05IB3]
DC50 (Brd4 (L) [1]): ≤ 50 nM
Dmax (Brd4 (L) [1]): ≥ 71%
DC50 (Brd4 (S) [2]): ≤ 50 nM
Dmax (Brd4 (S) [2]): ≥ 71%
Dmax (Brd4 (L) [3]): 79%
Dmax (Brd4 (S) [4]): 100%
DC50 (Brd2 [5]): 51 to 500 nM
Dmax (Brd2 [5]): ≥ 71%
DC50 (Brd3 [6]): 51 to 500 nM
Dmax (Brd3 [6]): ≥ 71%
Dmax at 1 µM (Brd2 [7]): 54%
Dmax at 1 µM (Brd3 [8]): 100%
Dmax at 1 µM (Brd2 [9]): 83%
Dmax at 1 µM (Brd3 [10]): 100%

CCCC(NC(=O)/C(C#N)=C/c1cccc(Br)n1)c1ccc(OCCOCCOCCOCCOCCOCCOCCNC(=O)c2ccc(-c3ccc4c(c3)[C@H](Nc3ccc(Cl)cc3)C[C@H](C)N4C(C)=O)cc2)cc1 (stereo partly drawn) [Example 05IB6]
DC50 (Brd4 (L) [1]): ≤ 50 nM
Dmax (Brd4 (L) [1]): ≥ 71%
DC50 (Brd4 (S) [2]): ≤ 50 nM
Dmax (Brd4 (S) [2]): ≥ 71%
Dmax (Brd4 (L) [3]): 100%
Dmax (Brd4 (S) [4]): 100%
DC50 (Brd2 [5]): ≤ 50 nM
Dmax (Brd2 [5]): ≥ 71%
DC50 (Brd3 [6]): ≤ 50 nM
Dmax (Brd3 [6]): ≥ 71%
Dmax at 1 µM (Brd2 [7]): 79%
Dmax at 1 µM (Brd3 [8]): 90%
Dmax at 1 µM (Brd2 [9]): 76%
Dmax at 1 µM (Brd3 [10]): 74%

CCCC(NC(=O)/C(C#N)=C/c1nccs1)c1ccc(OCCOCCOCCOCCOCCOCCOCCNC(=O)c2ccc(-c3ccc4c(c3)[C@H](Nc3ccc(Cl)cc3)C[C@H](C)N4C(C)=O)cc2)cc1 (stereo partly drawn) [Example 05IB9]
DC50 (Brd4 (L) [1]): ≤ 50 nM
Dmax (Brd4 (L) [1]): ≥ 71%
DC50 (Brd4 (S) [2]): ≤ 50 nM
Dmax (Brd4 (S) [2]): ≥ 71%
Dmax (Brd4 (L) [3]): 100%
Dmax (Brd4 (S) [4]): 100%
DC50 (Brd2 [5]): 51 to 500 nM
Dmax (Brd2 [5]): ≥ 71%
DC50 (Brd3 [6]): ≤ 50 nM
Dmax (Brd3 [6]): 51 to 70%
Dmax at 1 µM (Brd2 [7]): 76%
Dmax at 1 µM (Brd3 [8]): 80%
Dmax at 1 µM (Brd2 [9]): 73%
Dmax at 1 µM (Brd3 [10]): 60%
